Assay [1] has as its system senescent progeric fibroblasts (cell passage 17). Briefly: mitochondrial ROS (MitoSOX) by flow cytometry. The following applies: vs control, p<0.05, FIG. 19. In kind it is cell-based, human. The procedure: (§1) Progeric fibroblasts (Hutchinson-Gilford Progeria Syndrome Skin Fibroblasts, Coriell Cell Repositories, AG03198 B) were cultured in Dulbecco's Modified Eagle's Media (DMEM) supplemented with 10% fetal bovine serpm (FBS) and 100 unit/ml of penicillin, and 100 μg/ml of streptomycin (two antibiotics are purchased from Gibro-BRL and Grand Island, N.Y.) in a 5% CO2 incubator at 37° C. Subculturing was initiated when the cells were approximately 85% confluent in plates. Early subcultures were performed at a split ratio of 1:4, and later subcultures were performed at a split ratio of 1:2. When cell doubling time was 14 days, the cells were regarded as senescent progeric fibroblasts (cell passages 16 to 17).
(§2) The senescent progeric fibroblasts (cell passage 17) were seeded on each well of a 6-well plate in a concentration of 2,000 cells/well and cultured in the presence of 5 μM of Y-27632, 5 μM of FASUDIL, and 0.5 μM of SR3677 for 4 weeks in a 5% CO2 incubator at 37° C. The culture media were changed at every 4 days with new culture media supplemented with 5 μM of Y-27632, 5 μM of FASUDIL, and 0.5 μM of SR3677. A negative control group was prepared in the same manner, except that 0.05 (v/v) % of DMSO was used.
In addition, damage of mitochondria was identified by measuring reactive oxygen species (ROS) and mitochondrial membrane potentials which are well known in the art. ROS were measured using a 0.2 μM MitoSOX (Invitrogen, M3608) according to manufacturer's manuals. Light having a wavelength of 520 nm was irradiated to the cells using a FACSCaliber (Beckton Dickinson), and light emission was measured at 580 nm. The results were analyzed using Cell Quest 3.2 software (Beckton Dickinson). FIG. 19 is a graph displaying reactive oxygen species of progeric fibroblasts (cell passage 17) cultured in the presence of Rho-kinase inhibitors Y-27632 (5 μM), Fasudil (5 μM), and SR3677 (0.5 μM). […] In FIG. 19, * indicates statistically significant (p<0.05).
A general note: Flow cytometry measures light scatter and fluorescence of single cells or particles in a stream.

The test system is the same in assay [2]. As to the kind of experiment: microscopic observation of cell number and shape. Type of assay: cell-based, human. To be noted: 4 weeks, FIG. 17; for numbers of cells: vs DMSO. As for the experimental part: as §1, §2
FIG. 17 illustrates microscopic images of cells cultured in the presence of 5 μM of Y-27632, 5 μM of FASUDIL, and 0.5 μM of SR3677. In “a” of FIG. 17, a portion was selected, marked by a rectangle with a dashed line, and enlarged in a1 for closer examination of the cultured cells. In a1 of FIG. 17, a portion of a1 was selected, marked by a rectangle with a dashed line, and enlarged in a2 for much closer examination of the cultured cells (Scale bar 20 um).

Assay [3] deals with senescent fibroblasts (after 37 cell passages). As to the kind of experiment: lipofuscin autofluorescence by flow cytometry. The following applies: 4 weeks, vs control, p<0.05, FIG. 9. In kind it is cell-based, human. The procedure:
In addition, amounts of lipofuscin accumulated in the cultured cells were measured. Senescent cells (After 37 cell passages) were cultured for 4 weeks in a 5% CO2 incubator at 37° C. in the presence of 5 μM of Y-27632, 5 μM of FASUDIL, and 0.5 μM of SR3677. The culture media were changed at every 4 days with new culture media supplemented with 5 μM of Y-27632, 5 μM of FASUDIL, and 0.5 μM of SR3677. Since lipofuscin has autofluorescence characteristics, light having a wavelength of 488 nm was irradiated to the cells by using a FACSCaliber (Beckton Dickinson) and light emission at 520 nm was measured. The results are analyzed using a Cell Quest 3.2 software (Beckton Dickinson). FIG. 9 is a graph displaying amounts of lipofuscin in fibroblasts (after 37 cell passages) cultured in the presence of Rho-kinase inhibitors Y-27632 (5 μM), Fasudil (5 μM), and SR3677 (0.5 μM). […] In FIG. 9, * indicates statistically significant (p<0.05).

For assay [4], the system named is senescent myoblasts (11 cell passages). Briefly: mitochondrial membrane potential (JC-1) by flow cytometry. In kind it is cell-based, Human. The following applies: vs control, p<0.05, FIG. 16. The procedure: Myoblast cell lines (Human Skeletal Muscle Myoblasts, Lonza CC-2580 LOT:0000387550) were cultured in SkBM™-2 Basal Media (Lonza CC-3246) including an SkGM™-2 SingleQuots™ Kit (Lonza CC-3244) on plates coated with Collagen Type I (Greiner Bio One, 658950) in a 5% CO2 incubator at 37° C. Subculture was initiated when the cells were approximately 85% confluent in plates. Early subcultures were performed at a split ratio of 1:4, and later subcultures were performed at a split ratio of 1:2. When cell doubling time was 14 days, the cells were regarded as senescent myoblasts (cell passages 10 to 12).
Senescent cells were seeded on each well of a 6-well plate coated with Collagen Type I (Greiner Bio One, 657950) in a concentration of 2,000 cells/well. Senescent myoblasts (passage 11) were cultured in the presence of 5 μM of Y-27632, 5 μM of FASUDIL, and 0.5 μM of SR3677 for 4 weeks in a 5% CO2 incubator at 37° C. The culture media were changed at every 4 days with new culture media supplemented with 5 μM of Y-27632, 5 μM of FASUDIL, and 0.5 μM of SR3677. A negative control group was prepared in the same manner, except that 0.05 (v/v) % of DMSO was used.
Mitochondrial membrane potentials were measured using a MitoProbe™ JC-1 Assay kit for Flow Cytometry (Life technologies, T3168) according to manufacturer's manuals. JC-1 is accumulated in mitochondria in a potential-dependent manner, and this accumulation is identified by fluorescence emission shift from green (about 529 nm) to red (about 590 nm). As a result, mitochondrial depolarization is identified by a decrease in a red/green fluorescence ratio. The mitochondrial membrane potentials were measured by excitation at 488 nm using a FACSCaliber (Beckton Dickinson) and using a flow cytometer by using 530/30 nm and 585/42 nm band pass filters. The results were analyzed using Cell Quest 3.2 software (Beckton Dickinson).

Turning to `CN(C)CCOc1cc(-c2cn[nH]c2)ccc1NC(=O)C1COc2ccccc2O1` (stereo not drawn) [SR3677], the ROS result in assay [1] (0.5 μM) is “significantly reduced”. For the same compound, in assay [2] (0.5 μM), the cell shape result is “spindle shape generally found in young cells” and the numbers of cells result is listed as “greater than that of the control group”. In addition, the “amounts of lipofuscin in cells” value in assay [3] (0.5 μM) is on record as “significantly reduced”. Also, in assay [4] (0.5 μM), the “action potentials of mitochondria (mitochondrial membrane potential)” value (from here on “action potentials of mitochondria”) was “significantly increased”.

Regarding `C[C@@H](N)[C@H]1CC[C@H](C(=O)Nc2ccncc2)CC1` [Y-27632, (1R,4R)-4-((R)-1-aminoethyl)-N-(pyridin-4-yl)cyclohexanecarboxamide], the ROS entry in assay [1] (5 μM) is given as “significantly reduced”. In assay [2] (5 μM), the cell shape entry is recorded as “spindle shape generally found in young cells” and the numbers of cells entry is “greater than that of the control group”. Further, in assay [3] (5 μM), the “amounts of lipofuscin in cells” value is on record as “significantly reduced”. For the same compound, the “action potentials of mitochondria” value in assay [4] (5 μM) was “significantly increased”.

Turning to `O=S(=O)(c1cccc2cnccc12)N1CCCNCC1` [FASUDIL, 5-(1,4-diazepane-1-sulfonyl)isoquinoline], in assay [1] (5 μM), the ROS entry is recorded as “significantly reduced”. In assay [2] (5 μM), the cell shape result is listed as “spindle shape generally found in young cells” and the numbers of cells entry was “greater than that of the control group”. For the same compound, the “amounts of lipofuscin in cells” value in assay [3] (5 μM) is “significantly reduced”. Besides, in assay [4] (5 μM), the “action potentials of mitochondria” value is reported as “significantly increased”.
